Reference: patent US9957263B2, “Bromodomain inhibitors” (AbbVie Inc., priority 2013, dated 2018)

Legend:
[1] = biological target: BRD4 (BDI_K57-E168) (Homo sapiens (Human), UniProt O60885); experiment: TR-FRET bromodomain binding assay, BRD4 first bromodomain; settings: His-tagged BD1, Alexa647-labeled probe 100 nM
Procedure, shortened: (§1)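 His-tagged BRD4 BD1 (K57-E168) or BD2 at 8 nM, 1 nM Eu-anti-His antibody and Alexa647 BET-inhibitor probe (100 nM for BDI, 30 nM for BDII) in pH 6.0 phosphate buffer, 2% DMSO, compound 50 μM-0.85 nM; 1 h at RT, TR-FRET read. IC50 by 4-parameter fit, Ki from probe Kd and concentration.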

[2] = biological target: BRD4 (BDII_E352-M457) (Homo sapiens (Human), UniProt O60885); experiment: TR-FRET bromodomain binding assay, BRD4 second bromodomain; settings: His-tagged BD2, Alexa647-labeled probe 30 nM
Procedure, shortened: as §1

| Compound | Ki [1] [nM] | Ki [2] [nM] |
| --- | --- | --- |
| Cn1cc(-c2cc(S(C)(=O)=O)ccc2Oc2ccc(F)cc2F)c2cc(CN3CCCN(c4ccccn4)CC3)[nH]c2c1=O [Example 126, 4-[2-(2,4-difluorophenoxy)-5-(methylsulfonyl)phenyl]-6-methyl-2-{[4-(pyridin-2-yl)-1,4-diazepan-1-yl]methyl}-1,6-dihydro-7H-pyrrolo[2,3-c]pyridin-7-one] | 54.5 | 276 |
| CCNC(=O)c1cc2c(-c3cc(S(=O)(=O)CC)ccc3Oc3c(C)cccc3CN3CCCC3=O)cn(C)c(=O)c2[nH]1 [Example 151, N-ethyl-4-[5-(ethylsulfonyl)-2-{2-methyl-6-[(2-oxopyrrolidin-1-yl)methyl]phenoxy}phenyl]-6-methyl-7-oxo-6,7-dihydro-1H-pyrrolo[2,3-c]pyridine-2-carboxamide] | 813 | 9.95 |
| Cn1cc(-c2cc(S(C)(=O)=O)ccc2Oc2cccc(NCc3cc(F)cc(F)c3)c2)c2cc[nH]c2c1=O [Example 73, 4-[2-{3-[(3,5-difluorobenzyl)amino]phenoxy}-5-(methylsulfonyl)phenyl]-6-methyl-1,6-dihydro-7H-pyrrolo[2,3-c]pyridin-7-one] | 5.6 | 3.5 |
| CCS(=O)(=O)c1ccc(Oc2ccc(F)cc2F)c(-c2cn(C)c(=O)c3[nH]c(-c4cccnc4N4CCOCC4)cc23)c1 [Example 118, 4-[2-(2,4-difluorophenoxy)-5-(ethylsulfonyl)phenyl]-6-methyl-2-[2-(morpholin-4-yl)pyridin-3-yl]-1,6-dihydro-7H-pyrrolo[2,3-c]pyridin-7-one] | 99.2 | 367 |
| CCS(=O)(=O)c1ccc(Oc2ccc(Cl)cc2CCCN2CCOCC2)c(-c2cn(C)c(=O)c3[nH]ccc23)c1 [Example 83, 4-[2-{4-chloro-2-[3-(morpholin-4-yl)propyl]phenoxy}-5-(ethylsulfonyl)phenyl]-6-methyl-1,6-dihydro-7H-pyrrolo[2,3-c]pyridin-7-one] | 5.3 | 3.5 |
| Cn1cc(-c2cc(S(C)(=O)=O)ccc2Oc2cccc(NCc3cccc(C#N)c3)c2)c2cc[nH]c2c1=O [Example 60, 3-[({3-[2-(6-methyl-7-oxo-6,7-dihydro-1H-pyrrolo[2,3-c]pyridin-4-yl)-4-(methylsulfonyl)phenoxy]phenyl}amino)methyl]benzonitrile] | 7.9 | 2 |
| CSCC(=O)N1CCC(Nc2ccc(S(C)(=O)=O)cc2-c2cn(C)c(=O)c3[nH]ccc23)CC1 [Example 91, 6-methyl-4-[2-({1-[(methylsulfanyl)acetyl]piperidin-4-yl}amino)-5-(methylsulfonyl)phenyl]-1,6-dihydro-7H-pyrrolo[2,3-c]pyridin-7-one] | 5 | 7.5 |
| Cn1cc(-c2cc(S(C)(=O)=O)ccc2Oc2cccc(NCc3cccc(F)c3)c2)c2cc[nH]c2c1=O [Example 68, 4-[2-{3-[(3-fluorobenzyl)amino]phenoxy}-5-(methylsulfonyl)phenyl]-6-methyl-1,6-dihydro-7H-pyrrolo[2,3-c]pyridin-7-one] | 10 | 4.7 |

Now from value to compound:

| Ki [1] [nM] | Ki [2] [nM] | Compound |
| --- | --- | --- |
| 8.8 | 3.4 | Cn1cc(-c2cc(S(C)(=O)=O)ccc2Oc2cccc(NS(=O)(=O)c3ccc(C#N)cc3)c2)c2cc[nH]c2c1=O [Example 56, 4-cyano-N-{3-[2-(6-methyl-7-oxo-6,7-dihydro-1H-pyrrolo[2,3-c]pyridin-4-yl)-4-(methylsulfonyl)phenoxy]phenyl}benzenesulfonamide] |
| 26.9 | 128 | Cn1cc(-c2cc(S(C)(=O)=O)ccc2Oc2ccc(F)cc2F)c2cc(CN3CCN(c4ccccn4)CC3)[nH]c2c1=O [Example 132, 4-[2-(2,4-difluorophenoxy)-5-(methylsulfonyl)phenyl]-6-methyl-2-{[4-(pyridin-2-yl)piperazin-1-yl]methyl}-1,6-dihydro-7H-pyrrolo[2,3-c]pyridin-7-one] |
| 30 | 20 | COC1CCC(C(=O)N2CCC(Nc3ccc(S(C)(=O)=O)cc3-c3cn(C)c(=O)c4[nH]ccc34)CC2)CC1 (centres unmarked) [Example 94, 4-[2-({1-[(4-methoxycyclohexyl)carbonyl]piperidin-4-yl}amino)-5-(methylsulfonyl)phenyl]-6-methyl-1,6-dihydro-7H-pyrrolo[2,3-c]pyridin-7-one] |
| > 238 | 158 | CCS(=O)(=O)c1ccc(Oc2c(C)cccc2Cl)c(-c2cn(C)c(=O)c3[nH]c(C(=O)NCC#N)cc23)c1 [Example 120, 4-[2-(2-chloro-6-methylphenoxy)-5-(ethylsulfonyl)phenyl]-N-(cyanomethyl)-6-methyl-7-oxo-6,7-dihydro-1H-pyrrolo[2,3-c]pyridine-2-carboxamide] |
| 14 | 5.7 | Cn1cc(-c2cc(S(C)(=O)=O)ccc2Oc2cccc(C(=O)NCc3cc(F)cc(F)c3)c2)c2cc[nH]c2c1=O [Example 36, N-(3,5-difluorobenzyl)-3-[2-(6-methyl-7-oxo-6,7-dihydro-1H-pyrrolo[2,3-c]pyridin-4-yl)-4-(methylsulfonyl)phenoxy]benzamide] |
| 4.6 | 12 | COCCN[C@H]1CC[C@H](Nc2ccc(S(C)(=O)=O)cc2-c2cn(C)c(=O)c3[nH]ccc23)CC1 [Example 111, 4-[2-({trans-4-[(2-methoxyethyl)amino]cyclohexyl}amino)-5-(methylsulfonyl)phenyl]-6-methyl-1,6-dihydro-7H-pyrrolo[2,3-c]pyridin-7-one] |
| 1.64 | 0.605 | CCS(=O)(=O)Nc1ccc(Oc2ccc(F)cc2F)c(-c2cn(C)c(=O)c3[nH]c(C#CCOC)cc23)c1 [Example 163, N-{4-(2,4-difluorophenoxy)-3-[2-(3-methoxyprop-1-yn-1-yl)-6-methyl-7-oxo-6,7-dihydro-1H-pyrrolo[2,3-c]pyridin-4-yl]phenyl}ethanesulfonamide] |
| 3.4 | 5.6 | CC(=O)Nc1ccc(CN[C@H]2CC[C@H](Nc3ccc(S(C)(=O)=O)cc3-c3cn(C)c(=O)c4[nH]ccc34)CC2)cc1 [Example 108, N-(4-{[(trans-4-{[2-(6-methyl-7-oxo-6,7-dihydro-1H-pyrrolo[2,3-c]pyridin-4-yl)-4-(methylsulfonyl)phenyl]amino}cyclohexyl)amino]methyl}phenyl)acetamide] |
| 2 | 1.1 | Cc1cc(F)ccc1S(=O)(=O)Nc1cccc(Oc2ccc(S(C)(=O)=O)cc2-c2cn(C)c(=O)c3[nH]ccc23)c1 [Example 52, 4-fluoro-2-methyl-N-{3-[2-(6-methyl-7-oxo-6,7-dihydro-1H-pyrrolo[2,3-c]pyridin-4-yl)-4-(methylsulfonyl)phenoxy]phenyl}benzenesulfonamide] |
| 5.4 | 2 | Cn1cc(-c2cc(S(C)(=O)=O)ccc2Oc2cccc(NS(=O)(=O)c3cccc(F)c3)c2)c2cc[nH]c2c1=O [Example 40, 3-fluoro-N-{3-[2-(6-methyl-7-oxo-6,7-dihydro-1H-pyrrolo[2,3-c]pyridin-4-yl)-4-(methylsulfonyl)phenoxy]phenyl}benzenesulfonamide] |
| 15 | 12 | Cn1cc(-c2cc(S(C)(=O)=O)ccc2Oc2cccc(C(=O)N3CCC(N4CCCC4)CC3)c2)c2cc[nH]c2c1=O [Example 24, 6-methyl-4-[5-(methylsulfonyl)-2-(3-{[4-(pyrrolidin-1-yl)piperidin-1-yl]carbonyl}phenoxy)phenyl]-1,6-dihydro-7H-pyrrolo[2,3-c]pyridin-7-one] |
